Data reported in patent US10494376B2, “Tetrahydroisoquinoline derived PRMT5-inhibitors” (CTXT PTY LTD, priority 2014, dated 2019).
Where a name gives a salt, the structure may show the parent alone.

Molecular target: Full-length PRMT5 enzyme (NCBI Reference sequence NP_006100.2) co-expressed with His6-MEP50 (Homo sapiens (Human), UniProt O14744)
Assay: Revised PRMT5 Biochemical Assay
Details: 1 μM peptide substrate, 1 μM S-Adenosyl methionine, 4 hours at 37 degree Celsius, Transcreener EPIGEN fluorescence polarisation
Method: Compounds of the invention may be tested for in vitro activity in the following assay: A histone H4 derived peptide is used as substrate (amino acid sequence: […]N H2). Full-length PRMT5 enzyme (NCBI Reference sequence NP_006100.2) was co-expressed with His6-MEP50 in insect cells and purified via Nickel immobilized metal affinity and gel filtration chromatography (“the enzyme”).
The 6 μL reactions are run in Greiner brand black 384-well low volume assay plates. All reactions contained assay buffer (phosphate buffered saline, 0.01% (v/v) Tween-20, 0.01% (w/v) albumin from chicken egg white, 1 mM Dithiothreitol, 1 μM peptide substrate, 1 μM S-Adenosyl methionine, and 15 ng/reaction enzyme, with the enzyme being omitted from negative control reactions. Compounds were added in a volume of 100 nL from dilution series prepared in DMSO, positive and negative control reactions receiving the same volume DMSO without compound. The plates were sealed with adhesive seals and incubated for 4 hours at 37 degree Celsius. Reaction progress was measured using the Transcreener™ EPIGEN methyltransferase assay (BellBrook Labs, Madison, Wis.) as recommended by the manufacturer. To each reaction 2 μL detection mix were added, containing coupling enzymes, fluorescence polarisation tracer, and AMP antibody. Plates were incubated for 90 minutes before being read on a PerkinElmer EnVision™ plate reader in fluorescence polarisation mode. IC50 values were obtained from the raw readings by calculating percent inhibition (%1) for each reaction relative to controls on the same plate (% I=(I−CN)/(CP−CN) where CN/CP are the averages of the negative/positive reactions, respectively), then fitting the %1 data vs. compound concentration [I] to % I=(A+((B−A)/(1+((C/[I])^D)))) where A is the lower asymptote, B is the upper asymptote, C is the IC50 value, and D is the slope.

Chain of Full-length PRMT5 enzyme (NCBI Reference sequence NP_006100.2) co-expressed with His6-MEP50 (O14744 whole entry): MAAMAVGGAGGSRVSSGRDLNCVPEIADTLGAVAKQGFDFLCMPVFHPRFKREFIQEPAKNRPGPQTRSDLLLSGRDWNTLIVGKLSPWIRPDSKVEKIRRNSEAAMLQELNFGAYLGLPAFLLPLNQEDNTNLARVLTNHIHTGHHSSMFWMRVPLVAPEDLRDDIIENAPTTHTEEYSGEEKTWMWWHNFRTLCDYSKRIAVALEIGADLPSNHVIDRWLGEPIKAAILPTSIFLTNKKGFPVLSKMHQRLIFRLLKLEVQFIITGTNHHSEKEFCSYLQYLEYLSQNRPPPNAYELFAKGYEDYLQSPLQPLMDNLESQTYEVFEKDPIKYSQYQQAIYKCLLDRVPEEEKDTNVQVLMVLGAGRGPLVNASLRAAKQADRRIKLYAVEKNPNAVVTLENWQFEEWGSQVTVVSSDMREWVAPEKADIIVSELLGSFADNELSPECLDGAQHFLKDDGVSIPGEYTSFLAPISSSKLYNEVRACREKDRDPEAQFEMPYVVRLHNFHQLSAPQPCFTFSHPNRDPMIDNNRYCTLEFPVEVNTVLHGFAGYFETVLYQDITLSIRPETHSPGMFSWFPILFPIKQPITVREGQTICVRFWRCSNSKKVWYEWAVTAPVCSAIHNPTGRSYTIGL
Chain of Full-length PRMT5 enzyme (NCBI Reference sequence NP_006100.2) co-expressed with His6-MEP50 (Q9BQA1 whole entry partner): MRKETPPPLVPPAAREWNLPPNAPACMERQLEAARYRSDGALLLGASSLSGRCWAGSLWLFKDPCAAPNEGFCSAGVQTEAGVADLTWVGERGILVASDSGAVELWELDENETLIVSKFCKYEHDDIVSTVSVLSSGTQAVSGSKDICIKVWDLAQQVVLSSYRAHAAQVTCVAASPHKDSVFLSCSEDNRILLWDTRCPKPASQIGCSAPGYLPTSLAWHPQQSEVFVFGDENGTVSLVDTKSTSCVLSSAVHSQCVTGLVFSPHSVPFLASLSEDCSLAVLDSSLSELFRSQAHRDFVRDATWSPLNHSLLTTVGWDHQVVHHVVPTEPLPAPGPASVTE

**Q.** For `CN1CCN(C(=O)c2ccc(C(=O)NC[C@@H](O)[C@@H]3Cc4ccccc4CN3)cc2)CC1=O` [Example 41, N-((R)-2-Hydroxy-2-((S)-1,2,3,4-tetrahydroisoquinolin-3-yl)ethyl)-4-(4-methyl-3-oxopiperazine-1-carbonyl)benzamide], which IC50 is on record?
**A.** The IC50 was 1390 nM.

**Q.** Which IC50 does the source give for `O=C(NC[C@@H](O)[C@@H]1Cc2ccccc2CN1)c1ccc(C(=O)N2CCC(O)C2)cc1` (stereo partly drawn) [Example 47, N-((R)-2-Hydroxy-2-((S)-1,2,3,4-tetrahydroisoquinolin-3-yl)ethyl)-4-(3-hydroxypyrrolidine-1-carbonyl)benzamide] here?
**A.** Its IC50 is 3370 nM.

**Q.** Which IC50 does the source give for `Cc1ccccc1C(=O)NC[C@@H](O)[C@@H]1Cc2ccccc2CN1` [Example 10, N-((R)-2-Hydroxy-2-((S)-1,2,3,4-tetrahydroisoquinolin-3-yl)ethyl)-2-methylbenzamide] here?
**A.** Its IC50 is 22500 nM.

**Q.** For `O=C(NC[C@@H](O)[C@@H]1Cc2ccccc2CN1)c1ccc(C(=O)N2CCCC(O)C2)cc1` (stereo partly drawn) [Example 43, N-((R)-2-Hydroxy-2-((S)-1,2,3,4-tetrahydroisoquinolin-3-yl)ethyl)-4-(3-hydroxypiperidine-1-carbonyl)benzamide], which IC50 is on record?
**A.** The IC50 was 967 nM.

**Q.** For `CS(=O)(=O)N1CCC(NC(=O)c2ccc(C(=O)NC[C@@H](O)[C@@H]3Cc4ccccc4CN3)cc2)CC1` [Example 34, N^1-((R)-2-Hydroxy-2-((S)-1,2,3,4-tetrahydroisoquinolin-3-yl)ethyl)-N^4-(1-(methylsulfonyl)piperidin-4-yl)terephthalamide hydrochloride], which IC50 is on record?
**A.** The IC50 was 1680 nM.

**Q.** How did the IC50 turn out when `O=C(NC[C@@H](O)[C@@H]1Cc2ccccc2CN1)c1ccc(C(=O)N2CCC(O)(C(F)F)CC2)cc1` [Example 30, 4-(4-(Difluoromethyl)-4-hydroxypiperidine-1-carbonyl)-N-((R)-2-hydroxy-2-((S)-1,2,3,4-tetrahydroisoquinolin-3-yl)ethyl)benzamide] was run?
**A.** The IC50 was 139 nM.

**Q.** Which IC50 does the source give for `O=C(NC[C@@H](O)[C@@H]1Cc2ccccc2CN1)c1cnn(-c2cccnc2)c1` [Example 17, N-((R)-2-Hydroxy-2-((S)-1,2,3,4-tetrahydroisoquinolin-3-yl)ethyl)-1-(pyridin-3-yl)-1H-pyrazole-4-carboxamide dihydrochloride salt] here?
**A.** The IC50 was 1270 nM.

**Q.** How did the IC50 turn out when `O=C(NC[C@@H](O)[C@@H]1Cc2ccccc2CN1)c1cc(Cl)nc(OC2COC2)c1` [Example 115, 2-Chloro-N-((R)-2-hydroxy-2-((S)-1,2,3,4-tetrahydroisoquinolin-3-yl)ethyl)-6-(oxetan-3-yloxy)isonicotinamide dihydrochloride] was run?
**A.** Its IC50 is 2830 nM.

**Q.** Which IC50 does the source give for `O=C(NC[C@@H](O)[C@@H]1Cc2ccccc2CN1)c1ccc(Cl)nc1` [Example 98, 6-Chloro-N—((R)-2-hydroxy-2-((S)-1,2,3,4-tetrahydroisoquinolin-3-yl)ethyl)nicotinamide hydrochloride] here?
**A.** The IC50 was 230 nM.

**Q.** With `O=C(NC[C@@H](O)[C@@H]1Cc2ccccc2CN1)c1ccc(C(=O)N2C3CCC2COC3)c(C(F)F)c1` [Example 85, 4-(3-Oxa-8-azabicyclo[3.2.1]octane-8-carbonyl)-3-(difluoromethyl)-N-((R)-2-hydroxy-2-((S)-1,2,3,4-tetrahydroisoquinolin-3-yl)ethyl)benzamide] as the molecule, how does the IC50 read?
**A.** Its IC50 is 279 nM.

**Q.** Which IC50 does the source give for `O=C(NC[C@@H](O)[C@@H]1Cc2ccccc2CN1)c1cccnc1` [Example 78, N-((R)-2-Hydroxy-2-((S)-1,2,3,4-tetrahydroisoquinolin-3-yl)ethyl)nicotinamide dihydrochloride] here?
**A.** Its IC50 is 1700 nM.

**Q.** With `COC1CC2CCC(C1)N2C(=O)c1ccc(C(=O)NC[C@@H](O)[C@@H]2Cc3ccccc3CN2)cc1` (stereo partly drawn) [Example 38, N-((R)-2-Hydroxy-2-((S)-1,2,3,4-tetrahydroisoquinolin-3-yl)ethyl)-4-(3-methoxy-8-azabicyclo[3.2.1]octane-8-carbonyl)benzamide] as the molecule, how does the IC50 read?
**A.** The IC50 was 599 nM.

**Q.** For `O=C(NC[C@@H](O)[C@@H]1Cc2ccccc2CN1)c1ccc(OC2CCNCC2)nc1` [Example 99, N—((R)-2-Hydroxy-2-((S)-1,2,3,4-tetrahydroisoquinolin-3-yl)ethyl)-6-(piperidin-4-yloxy)nicotinamide trihydrochloride], which IC50 is on record?
**A.** Its IC50 is 127 nM.

**Q.** How did the IC50 turn out when `Nc1ccc(C(=O)NC[C@@H](O)[C@@H]2Cc3ccccc3CN2)cn1` [Example 111, 6-Amino-N-((R)-2-hydroxy-2-((S)-1,2,3,4-tetrahydroisoquinolin-3-yl)ethyl)nicotinamide dihydrochloride] was run?
**A.** Its IC50 is 4670 nM.

**Q.** Which IC50 does the source give for `O=C(NC[C@@H](O)[C@@H]1Cc2ccccc2CN1)c1ccc2[nH]ncc2c1` [Example 112, N-((R)-2-Hydroxy-2-((S)-1,2,3,4-tetrahydroisoquinolin-3-yl)ethyl)-1H-indazole-5-carboxamide dihydrochloride] here?
**A.** Its IC50 is 2310 nM.

**Q.** `CC(NC(=O)c1ccc(C(=O)N2CCOCC2)cc1)[C@H](O)[C@@H]1Cc2ccccc2CN1` (stereo partly drawn) [Example 110, N-((1S)-1-Hydroxy-1-((S)-1,2,3,4-tetrahydroisoquinolin-3-yl)propan-2-yl)-4-(morpholine-4-carbonyl)benzamide hydrochloride] was tested. Which IC50 did it give?
**A.** Its IC50 is 1490 nM.

**Q.** With `O=C(NC[C@@H](O)[C@@H]1Cc2ccccc2CN1)c1cc(OC2CCOCC2)ncc1Cl` [Example 75, 5-Chloro-N-((R)-2-hydroxy-2-((S)-1,2,3,4-tetrahydroisoquinolin-3-yl)ethyl)-2-((tetrahydro-2H-pyran-4-yl)oxy)isonicotinamide dihydrochloride] as the molecule, how does the IC50 read?
**A.** The IC50 was 1200 nM.

**Q.** Which IC50 does the source give for `O=C(NC[C@@H](O)[C@@H]1Cc2ccccc2CN1)c1ccccc1OC(F)(F)F` [Example 6, N-((R)-2-Hydroxy-2-((S)-1,2,3,4-tetrahydroisoquinolin-3-yl)ethyl)-2-(trifluoromethoxy)benzamide] here?
**A.** Its IC50 is 45800 nM.

**Q.** `O=C(NC[C@@H](O)[C@@H]1Cc2ccccc2CN1)c1coc(-c2ccccc2)n1` [Example 14, N-((R)-2-Hydroxy-2-((S)-1,2,3,4-tetrahydroisoquinolin-3-yl)ethyl)-2-phenyloxazole-4-carboxamide] was tested. Which IC50 did it give?
**A.** The IC50 was 2330 nM.

**Q.** For `O=C(NC[C@@H](O)[C@@H]1Cc2ccccc2CN1)c1cccc(C(F)F)c1` [Example 22, 3-(Difluoromethyl)-N-((R)-2-hydroxy-2-((S)-1,2,3,4-tetrahydroisoquinolin-3-yl)ethyl)benzamide], which IC50 is on record?
**A.** The IC50 was 2150 nM.

**Q.** How did the IC50 turn out when `O=C(NC[C@@H](O)[C@@H]1Cc2ccccc2CN1)c1ccnc(OC2CCN(CC(F)(F)F)CC2)c1` [Example 124, N—((R)-2-Hydroxy-2-((S)-1,2,3,4-tetrahydroisoquinolin-3-yl)ethyl)-2-((1-(2,2,2-trifluoroethyl)piperidin-4-yl)oxy)isonicotinamide] was run?
**A.** Its IC50 is 70 nM.

**Q.** For `CC(=O)N1CCN(C(=O)c2ccc(C(=O)NC[C@@H](O)[C@@H]3Cc4ccccc4CN3)cc2)CC1` [Example 66, 4-(4-Acetylpiperazine-1-carbonyl)-N-((R)-2-hydroxy-2-((S)-1,2,3,4-tetrahydroisoquinolin-3-yl)ethyl)benzamide], which IC50 is on record?
**A.** The IC50 was 329 nM.

**Q.** How did the IC50 turn out when `CC(C)NC(=O)c1ccc(C(=O)NC[C@@H](O)[C@@H]2Cc3ccccc3CN2)cc1` [Example 97, N^1-((R)-2-Hydroxy-2-((S)-1,2,3,4-tetrahydroisoquinolin-3-yl)ethyl)-N^4-isopropylterephthalamide] was run?
**A.** Its IC50 is 18700 nM.

**Q.** `CC(=O)N1CCC(c2nc3cc(C(=O)NC[C@@H](O)[C@@H]4Cc5ccccc5CN4)ccc3[nH]2)CC1` [Example 88, 2-(1-Acetylpiperidin-4-yl)-N-((R)-2-hydroxy-2-((S)-1,2,3,4-tetrahydroisoquinolin-3-yl)ethyl)-1H-benzo[d]imidazole-5-carboxamide] was tested. Which IC50 did it give?
**A.** The IC50 was 187 nM.

**Q.** How did the IC50 turn out when `COC1CCN(C(=O)c2ccc(C(=O)NC[C@@H](O)[C@@H]3Cc4ccccc4CN3)cc2)CC1` [Example 92, N-((R)-2-Hydroxy-2-((S)-1,2,3,4-tetrahydroisoquinolin-3-yl)ethyl)-4-(4-methoxypiperidine-1-carbonyl)benzamide] was run?
**A.** Its IC50 is 310 nM.

**Q.** `O=C(NC[C@@H](O)[C@@H]1Cc2ccccc2CN1)c1ccc(C(=O)N2CCCCO2)cc1` [Example 93, N-((R)-2-Hydroxy-2-((S)-1,2,3,4-tetrahydroisoquinolin-3-yl)ethyl)-4-(1,2-oxazinane-2-carbonyl)benzamide] was tested. Which IC50 did it give?
**A.** The IC50 was 759 nM.

**Q.** With `COc1ccccc1C(=O)NC[C@@H](O)[C@@H]1Cc2ccccc2CN1` [Example 7, N-((R)-2-Hydroxy-2-((S)-1,2,3,4-tetrahydroisoquinolin-3-yl)ethyl)-2-methoxybenzamide] as the molecule, how does the IC50 read?
**A.** The IC50 was 20000 nM.

**Q.** For `COc1cc(C(=O)N2C3CCC2COC3)ccc1C(=O)NC[C@@H](O)[C@@H]1Cc2ccccc2CN1` [Example 87, 4-(3-Oxa-8-azabicyclo[3.2.1]octane-8-carbonyl)-N-((R)-2-hydroxy-2-((S)-1,2,3,4-tetrahydroisoquinolin-3-yl)ethyl)-2-methoxybenzamide hydrochloride], which IC50 is on record?
**A.** The IC50 was 57 nM.
